Assay results reported in patent US20230386637A1, “Polymorphisms for Predicting Treatment Response to Antipsychotic Drugs and Identifying New Drug Targets” (Northwestern University, priority 2018, published 2023).

Assays:
[1] = system: mouse prefrontal cortex; conditions: subeffective dose of SB269970 with subeffective dose of lurasidone; awake freely moving mice; cited from earlier work
[2] = system: acutely psychotic SCZ patients; experiment: PEARL 1, 2 and PEARL 3 six-week placebo-controlled lurasidone trials, GWAS subjects of the meta-analysis; type: in vivo, human
From the text: Participants. The three clinical trials (Loebel et al., 2013a; Meltzer et al., 2011a; Nasrallah et al., 2013) used in this analysis were six-week, randomized, double-blind, placebo-controlled, multicenter registration trials, of DSM-IV acutely psychotic SCZ patients. The primary measure of efficacy, ΔPANSS-TOT, was the difference between baseline and last observation carried forward (LOCF) for those with at least one PANSS rating at, or after two weeks of treatment, (ΔPANSS-TOTLOCF6WK=PANSSTOTLOCF6WK-PANSS-TOTBaseline). The overall mean percentage of patients who achieved a priori determined response: ≥20% improvement in ΔPANSS-TOTLOCF6WK, was 61% in the PEARL 1, 2 and 3 studies. A total of 587 subjects with valid treatment response data and verified race from two ethnic populations, EUR and AFR, gave written informed consent to participate in genetics study (368 of 545 (67.5% with EUR ancestry and 219 of 403 (54.3% with AFR ancestry). These trials included a small number of patients randomized to treatment with olanzapine (PEARL 1) or quetiapine (PEARL 3). There were too few subjects with genetic data to include them as a separate group in this analysis.
PEARL 3 was considered an independent dataset due to a significant difference in PANSS-TOTBaseline, inclusion of a higher dose of lurasidone (160 mg/d), and an unequal variance, compared to PEARL 1/2, in ΔPANSS-TOTLOCF6WK by Leven test (Table 1). Samples from the corresponding placebo groups of all three trials were pooled together due to a relatively small sample size per trial and absence of significant differences in demographic and clinical data. Thus, three groups (PEARL 1+2, PEARL 3 and Placebo) per ethnicity were independently examined for quality control (QC), PCA for genetic architectures, and GWAS analyses before determining summary statistics at the individual SNP level. Both Kolmogorov-Smimov and Shapiro-Wilk tests indicated ΔPANSS-TOTLOCF6WK followed a normal distribution with skewness and kurtosis indices between −1 and +1. Therefore, no subjects were excluded from the analysis.

[3] = in vivo; cited from earlier work
[4] = system: acutely psychotic SCZ patients; experiment: Pearl 1 and Pearl 2 six-week randomized placebo-controlled lurasidone trials, GWAS sample; type: in vivo, human
Protocol: The clinical trials, subjects, and genotyping. The two clinical trials used for this analysis are both six-week, randomized, double-blind, lurasidone, placebo-controlled, multicenter registration trials, of DSM-IV acutely psychotic SCZ patients (Meltzer et al., 2011b; Nasrallah et al., 2013b). Patients who met TRS criteria were excluded. There were four fixed-dose treatment arms: lurasidone 40 and 120 mg/day, another atypical APD, olanzapine, 15 mg/day, and placebo (Pearl 1) (Meltzer et al., 2011b) and lurasidone 40, 80, and 120 mg/day, and placebo (Pearl 2) (Nasrallah et al., 2013b). The percentages of patients who achieved the a priori determined response: >20% improvement in ΔPANSS-T, was 61% in both the Pearl 1 and 2 studies. A total of 171/63 Caucasian and 131/54 AA for lurasidone/placebo-treated patients consented to participate in the genetic study. Ethnicity was validated as described below.
Evaluation of treatment response. The primary measure of efficacy, ΔPANSS-Total, was the difference between baseline and last observation carried forward (LOCF) for those with at least one PANSS rating after baseline. Results could be pooled across drug dosage arms because clinical change was not dose related (data not presented). The intention-to-treat (ITT) population included 157, 73, and 156 patients who received 40, 80, and 120 mg/day doses of lurasidone, respectively. Subjects within the 30th percentiles for greatest or least improvement in PANSS-Total (referred to as best and worst responders, hereafter) were included in a secondary analysis as previously done for iloperidone (Lavedan et al., 2009).
Population stratification. […] Population stratification and separation was employed throughout the following analyses. This process yielded 234 Caucasians, 171 and 63 in the lurasidone- and placebo-treated groups, respectively. There were […], 131 and 54 in the lurasidone- and placebo groups, respectively. Adjustment using the top three PCs within each ethnic group was applied to the association tests. The QQ plots indicated no marked deviations of the observed distributions from the expected null distributions with genome inflation factor=1.00 for both ethnic groups (FIG. 1c, d). Both Kolmogorov-Smimov and Shapiro-Wilk tests indicated ΔPANSS-T followed the normal distribution with skewness and kurtosis indices between-1 and +1. Therefore, no subjects had to be excluded from the analysis.

[5] = African ancestry, Pearl 1, 2, n=124
[6] = African ancestry, Pearl 3, n=34
[7] = European ancestry, Pearl 1, 2, n=165
[8] = European ancestry, Pearl 3, n=99

Which “effect on lurasidone-induced dopamine efflux” value [1] does the source give for `CC1CCN(CC[C@H]2CCCN2S(=O)(=O)c2cccc(O)c2)CC1` [SB269970] here?
Its value is “potentiated”.

Which “% change of Psychopathology PANSE_NEG” value [2, 5] does the source give for `O=C1[C@@H]2[C@H]3CC[C@H](C3)[C@@H]2C(=O)N1C[C@@H]1CCCC[C@H]1CN1CCN(c2nsc3ccccc23)CC1` [lurasidone] here?
Its value is −13.44(22.75) %.

What about the “% change of Psychopathology PANSS_POS” value [2, 5] of the same molecule?
Its value is −25.80(24.91) %.

What about the “% change of Psychopathology PANSS_TOT” value [2, 5] of the same molecule?
Its value is −16.55(17.79) %.

What about the “Δ change of Psychopathology PANSS_NEG” value [2, 5] of the same molecule?
The value was −3.26(4.82).

What about the “Δ change of Psychopathology PANSS_POS” value [2, 5] of the same molecule?
The value was −5.15(4.93).

What about the “Δ change of Psychopathology PANSS_TOT” value ([2]; African ancestry, Pearl 1, 2, n=124, lurasidone 40/80/120 mg/d) of the same molecule?
The value was −15.88(16.97).

And the “% change of Psychopathology PANSE_NEG” value [2, 6]?
Its value is −15.66(22.26) %.

And the “% change of Psychopathology PANSS_POS” value [2, 6]?
Its value is −30.04(22.51) %.

And the “% change of Psychopathology PANSS_TOT” value [2, 6]?
Its value is −22.47(19.05) %.

And the “Δ change of Psychopathology PANSS_NEG” value [2, 6]?
The value was −3.85(4.88).

What about the “Δ change of Psychopathology PANSS_POS” value [2, 6] of the same molecule?
The value was −5.71(4.35).

And the “Δ change of Psychopathology PANSS_TOT” value ([2]; African ancestry, Pearl 3, n=34, lurasidone 80/160 mg/d)?
Its value is −21.95(18.15).

What about the “% change of Psychopathology PANSS_NEG” value [2, 7] of the same molecule?
Its value is −13.44(22.75) %.

And the “% change of Psychopathology PANSS_POS” value [2, 7]?
The value was −25.80(24.91) %.

And the “% change of Psychopathology PANSS_TOT” value [2, 7]?
Its value is −16.55(17.79) %.

And the “Δ change of Psychopathology PANSS_NEG” value [2, 7]?
The value was −3.26(4.82).

And the “Δ change of Psychopathology PANSS_POS” value [2, 7]?
Its value is −5.15(4.93).

And the “Δ change of Psychopathology PANSS_TOT” value ([2]; European ancestry, Pearl 1, 2, n=165, lurasidone 40/80/120 mg/d)?
Its value is −15.88(16.97).

What about the “% change of Psychopathology PANSS_NEG” value [2, 8] of the same molecule?
The value was −15.66(22.26) %.

And the “% change of Psychopathology PANSS_POS” value [2, 8]?
Its value is −30.04(22.51) %.

And the “% change of Psychopathology PANSS_TOT” value [2, 8]?
Its value is −22.47(19.05) %.

What about the “Δ change of Psychopathology PANSS_NEG” value [2, 8] of the same molecule?
The value was −3.85(4.88).

What about the “Δ change of Psychopathology PANSS_POS” value [2, 8] of the same molecule?
Its value is −5.71(4.35).

What about the “Δ change of Psychopathology PANSS_TOT” value ([2]; European ancestry, Pearl 3, n=99, lurasidone 80/160 mg/d) of the same molecule?
The value was −21.95(18.15).

And the “overall mean percentage of patients who achieved a priori determined response: ≥20% improvement in ΔPANSS-TOTLOCF6WK” value ([2]; PEARL 1, 2 and 3 studies)?
The value was 61%.

What about the side effect profile [3] of the same molecule?
The side effect profile was “relatively benign side effect profile”.

And the “PANSS anxiety/depression Change (LOCP)” value ([4]; African-Americans, n=131)?
Its value is −3.3 ± 4.1.

What about the “PANSS disorganization Change (LOCF)” value ([4]; African-Americans, n=131) of the same molecule?
The value was −4.0 ± 4.4.

What about the “PANSS excited Change (LOCF)” value ([4]; African-Americans, n=131) of the same molecule?
The value was −1.2 ± 4.0.

And the “PANSS negative Change (LOCF)” value ([4]; African-Americans, n=131)?
The value was −4.2 ± 4.6.

And the “PANSS positive Change (LOCF)” value ([4]; African-Americans, n=131)?
Its value is −5.3 ± 4.4.

And the “PANSS total Change (LOCF)” value ([4]; African-Americans, n=131)?
The value was −18.0 ± 16.3.

What about the “PANSS anxiety/depression Change (LOCP)” value ([4]; Caucasians, n=171) of the same molecule?
The value was −2.1 ± 4.2.

And the “PANSS disorganization Change (LOCF)” value ([4]; Caucasians, n=171)?
The value was −4.0 ± 4.2.

What about the “PANSS excited Change (LOCF)” value ([4]; Caucasians, n=171) of the same molecule?
Its value is −1.4 ± 3.7.

And the “PANSS negative Change (LOCF)” value ([4]; Caucasians, n=171)?
Its value is −3.3 ± 4.8.

What about the “PANSS positive Change (LOCF)” value ([4]; Caucasians, n=171) of the same molecule?
The value was −5.1 ± 4.9.

And the “PANSS total Change (LOCF)” value ([4]; Caucasians, n=171)?
Its value is −15.9 ± 17.0.

And the “CGI Change (LOCF)” value ([4]; Caucasians, n=171, lurasidone 40/80/120 mg, baseline to LOCF, mean ± SD)?
The value was −1.0 ± 1.0.

And the “percentages of patients who achieved the a priori determined response: >20% improvement in ΔPANSS-T” value ([4]; both the Pearl 1 and 2 studies)?
The value was 61%.
